Measurements reported in patent publication US9643999B2 (Bristol-Myers Squibb Company, priority 2012, dated 2017).
Read-outs that look alike come from different tables or passages of the source.

Assays:
HCV genotype 1b replicon = assay: HCV replicon luciferase reporter assay, genotype 1b (LE_1b); assay type: cell-based; conditions: Hepatitis C virus, 72 h, HUH-7 cells, genotype 1b (Con1) replicon, 3 days incubation, Renilla luciferase
From the text: An HCV replicon whole cell system was established as described by Lohmann V, Korner F, Koch J, Herian U, Theilmann L, Bartenschlager R., Science 285(5424):110-3 (1999) and modified to introduce a luciferase reporter, as first described by Krieger et al (Krieger N, Lohmann V, and Bartenschlager R, J. Virol. 75(10):4614-4624 (2001)). cDNA encoding a humanized form of the Renilla luciferase gene and a linker sequence fused directly to the 3′-end of the luciferase gene were introduced into the replicon construct using an Asc1 restriction site located in core, directly upstream of the neomycin marker gene. The adaptive mutation at position 1179 (serine to isoleucine) was also introduced (Blight K J, Kolykhalov, A A, Rice, C M, Science 290(5498):1972-1974). A stable cell line constitutively expressing this HCV replicon construct was generated by first linearizing plasmid DNAs with ScaI. RNA transcripts were synthesized in vitro using the T7 MegaScript transcription kit (Ambion, Austin, Tex.) according to manufacturer's directions. In vitro transcripts of the cDNA were transfected into the human hepatoma cell line, HUH-7. […] Resulting cell lines were characterized for positive and negative strand RNA production and protein production over time. […]
(§1) HCV replicon luciferase assays were developed to monitor the inhibitory effects of compounds described in the disclosure on HCV genotypes 1a and 1b viral replication. HUH-7 cells, constitutively expressing the HCV replicon, were grown in Dulbecco's Modified Eagle Media (DMEM) (Gibco-BRL) containing 10% Fetal calf serum (FCS) (Sigma) and 1 mg/mL G418 (Gibco-BRL). Compounds were serially diluted 3 folds in DMSO for a twenty-point titration and subsequently transferred to sterile 384-well tissue-culture treated plates (Corning cat #3571). The plates were then seeded with 50 μL of cells at a density of 3.0×10^3 cells/well in DMEM containing 4% FCS (final DMSO concentration at 0.5%). After 3 days incubation at 37° C., cells were analyzed for Renilla Luciferase activity using the EnduRen as substrate (Promega cat #E6485). The EnduRen substrate was diluted in DMEM and then added to the plates to a final concentration of 7.5 μM. The plates were incubated for 2 hrs at 37° C. and then read immediately for 30 seconds with Viewlux Imager (PerkinElmer) using a luminescence program. To assess cytotoxicity of compounds, CC50 values were generated by multiplexing the EnduRen-containing plates with Cell Titer-Blue (Promega, cat #G8082). Cell-Titer Blue (3 μL) was added to each well and incubated for 8 hrs at 37° C. The fluorescence signal from each well was read, with an excitation wavelength at 525/10 nm and an emission wavelength of 598/10 nm, using the Viewlux Imager.
(§2) The EC50 values for compounds were calculated by using a four-parameter logistic equation: y=A+((B−A)/(1+((C/x)^D))), where A and B denotes minimal and maximal % inhibition, respectively, C is the EC50, D is the hill slope and x represents compound concentration.

HCV genotype 1a replicon = assay: HCV replicon luciferase reporter assay, genotype 1a (LE_1a); assay type: cell-based; conditions: Hepatitis C virus, 72 h, HUH-7 cells, genotype 1a H77 replicon, 3 days incubation, Renilla luciferase
From the text: An HCV replicon whole cell system was established as described by Lohmann V, Korner F, Koch J, Herian U, Theilmann L, Bartenschlager R., Science 285(5424):110-3 (1999) and modified to introduce a luciferase reporter, as first described by Krieger et al (Krieger N, Lohmann V, and Bartenschlager R, J. Virol. 75(10):4614-4624 (2001)). cDNA encoding a humanized form of the Renilla luciferase gene and a linker sequence fused directly to the 3′-end of the luciferase gene were introduced into the replicon construct using an Asc1 restriction site located in core, directly upstream of the neomycin marker gene. The adaptive mutation at position 1179 (serine to isoleucine) was also introduced (Blight K J, Kolykhalov, A A, Rice, C M, Science 290(5498):1972-1974). A stable cell line constitutively expressing this HCV replicon construct was generated by first linearizing plasmid DNAs with ScaI. RNA transcripts were synthesized in vitro using the T7 MegaScript transcription kit (Ambion, Austin, Tex.) according to manufacturer's directions. In vitro transcripts of the cDNA were transfected into the human hepatoma cell line, HUH-7. […] Resulting cell lines were characterized for positive and negative strand RNA production and protein production over time.
A stable HCV replicon luciferase reporter cell line representing the genotype 1a H77 strain (Yanagi M, Purcell R H, Emerson S U, et al. Transcripts from a single full-length cDNA clone of hepatitis C virus are infectious when directly transfected into the liver of a chimpanzee. Proc Natl Acad Sci USA 1997; 94(16):8738-8743) was generated as described previously for the genotype 1b(Con1) replicon luciferase cell line. The replicon construct was modified by introducing mutations were introduced into the genes encoding the NS3 helicase domain (proline replaced by leucine at position 1496) and NS5A (serine to isoleucine at position 2204) to improve replication in cell culture.
as §1, §2

| Compound | EC50 (HCV genotype 1b replicon; read-out: LE_1b (EC50, range)) | EC50 (HCV genotype 1a replicon; read-out: LE_1a (EC50, range)) | EC50 (HCV genotype 1b replicon; read-out: LE_1b (EC50)) | EC50 (HCV genotype 1a replicon; read-out: LE_1a (EC50)) |
| --- | --- | --- | --- | --- |
| [2H]C([2H])([2H])C1(S(=O)(=O)NC(=O)[C@@]23C[C@H]2/C=C\CC[C@@H](C)C[C@@H](CC)[C@H](NC(=O)OC(C)(C)C)C(=O)N2C[C@H](Oc4nccc5cc(OC)c(F)cc45)C[C@H]2C(=O)N3)CC1 [Compound 5507] | 0.51 to 1 nM | 1.01 to 5 nM | – | – |
| [2H]C([2H])([2H])C1(S(=O)(=O)NC(=O)[C@@]23C[C@H]2/C=C\CC[C@@H](C)C[C@@H](CC)[C@H](NC(=O)OC(C)(C)C)C(=O)N2C[C@H](Oc4nccc5cc(OCC)c(F)cc45)C[C@H]2C(=O)N3)CC1 [Compound 5509] | 0.51 to 1 nM | 1.01 to 5 nM | – | – |
| [2H]C([2H])([2H])C1(S(=O)(=O)NC(=O)[C@@]23C[C@H]2/C=C\CC[C@@H](C)C[C@@H](CC)[C@H](NC(=O)OC(C)(C)C(F)(F)F)C(=O)N2C[C@H](Oc4nccc5cc(OC)c(F)cc45)C[C@H]2C(=O)N3)CC1 [Compound 5511] | 1.01 to 5 nM | 1.01 to 5 nM | – | – |
| [2H]C([2H])([2H])C1(S(=O)(=O)NC(=O)[C@@]23C[C@H]2/C=C\CC[C@@H](C)C[C@@H](CC)[C@H](NC(=O)OC(C)(C)C(C)(F)F)C(=O)N2C[C@H](Oc4nccc5cc(OC)c(F)cc45)C[C@H]2C(=O)N3)CC1 [Compound 5513] | 0.51 to 1 nM | 1.01 to 5 nM | – | – |
| [2H]C([2H])([2H])C1(S(=O)(=O)NC(=O)[C@@]23C[C@H]2/C=C\CC[C@@H](C)C[C@@H](CC)[C@H](NC(=O)OC(C)(C)C(F)F)C(=O)N2C[C@H](Oc4nccc5cc(OC)c(F)cc45)C[C@H]2C(=O)N3)CC1 [Compound 5515] | 0.51 to 1 nM | 1.01 to 5 nM | – | – |
| [2H]C([2H])([2H])C1(S(=O)(=O)NC(=O)[C@@]23C[C@H]2/C=C\CC[C@@H](C)C[C@@H](CC)[C@H](NC(=O)OC(C)(C)C(C)(F)F)C(=O)N2C[C@H](Oc4nccc5cc(OCC)c(F)cc45)C[C@H]2C(=O)N3)CC1 [Compound 5519] | 0.51 to 1 nM | 1.01 to 5 nM | – | – |
| [2H]C([2H])([2H])C1(S(=O)(=O)NC(=O)[C@@]23C[C@H]2/C=C\CC[C@@H](C)C[C@@H](CC)[C@H](NC(=O)OC(C)(C)C(F)F)C(=O)N2C[C@H](Oc4nccc5cc(OCC)c(F)cc45)C[C@H]2C(=O)N3)CC1 [Compound 5521] | 0.1 to 0.5 nM | 1.01 to 5 nM | 0.47 nM | 1.23 nM |
| [2H]C([2H])([2H])C1(S(=O)(=O)NC(=O)[C@@]23C[C@H]2/C=C\CC[C@@H](C)C[C@@H](CC)[C@H](NC(=O)OC(C)(C)C(F)F)C(=O)N2C[C@H](Oc4ncc(OC)c5ccccc45)C[C@H]2C(=O)N3)CC1 [Compound 5549] | 0.51 to 1 nM | 0.51 to 1 nM | – | – |
| C[C@@H]1CC/C=C\[C@@H]2C[C@@]2(C(=O)NS(=O)(=O)C2(C)CC2)NC(=O)[C@@H]2C[C@@H](Oc3nc4nncn4c4ccccc34)CN2C(=O)[C@@H](NC(=O)OC(C)(C)C)[C@H](C)C1 [Compound 6120, tert-butyl((2R,6S,7R,9R,13aS,14aR,16aS,Z)-2-([1,2,4]triazolo[4,3-a]quinazolin-5-yloxy)-7,9-dimethyl-14a-(((1-methylcyclopropyl)sulfonyl)carbamoyl)-5,16-dioxo-1,2,3,5,6,7,8,9,10,11,13a,14,14a,15,16,16a-hexadecahydrocyclopropa[e]pyrrolo[1,2-a][1,4]diazacyclopentadecin-6-yl)carbamate] | 35 to 145 nM | 35 to 145 nM | – | – |
| C[C@@H]1CC/C=C\[C@@H]2C[C@@]2(C(=O)NS(=O)(=O)C2(C)CC2)NC(=O)[C@@H]2C[C@@H](Oc3nc4nccn4c4ccccc34)CN2C(=O)[C@@H](NC(=O)OC(C)(C)C)[C@H](C)C1 [Compound 6122, tert-butyl((2R,6S,7R,9R,13aS,14aR,16aS,Z)-2-(imidazo[1,2-a]quinazolin-5-yloxy)-7,9-dimethyl-14a-(((1-methylcyclopropyl)sulfonyl)carbamoyl)-5,16-dioxo-1,2,3,5,6,7,8,9,10,11,13a,14,14a,15,16,16a-hexadecahydrocyclopropa[e]pyrrolo[1,2-a][1,4]diazacyclopentadecin-6-yl)carbamate] | 35 to 145 nM | 35 to 145 nM | 72.5 nM | 72 nM |
| C[C@@H]1CC/C=C\[C@@H]2C[C@@]2(C(=O)NS(=O)(=O)C2(C)CC2)NC(=O)[C@@H]2C[C@@H](Oc3nc4nncn4c4ccccc34)CN2C(=O)[C@@H](NC(=O)OC(C)(C)C(F)(F)F)[C@H](C)C1 [Compound 6125] | 35 to 145 nM | 35 to 145 nM | – | – |
| C[C@@H]1CC/C=C\[C@@H]2C[C@@]2(C(=O)NS(=O)(=O)C2(C)CC2)NC(=O)[C@@H]2C[C@@H](Oc3nc4nccn4c4ccccc34)CN2C(=O)[C@@H](NC(=O)OC(C)(C)C(F)(F)F)[C@H](C)C1 [Compound 6127] | 5.01 to 35 nM | 5.01 to 35 nM | – | – |
| C[C@@H]1CC/C=C\[C@@H]2C[C@@]2(C(=O)NS(=O)(=O)C2(C)CC2)NC(=O)[C@@H]2C[C@@H](Oc3nc4nccn4c4ccc(Cl)cc34)CN2C(=O)[C@@H](NC(=O)OC(C)(C)C(F)(F)F)[C@H](C)C1 [Compound 6129] | 0.51 to 1 nM | 1.01 to 5 nM | 0.78 nM | 4.21 nM |
| C[C@@H]1CC/C=C\[C@@H]2C[C@@]2(C(=O)NS(=O)(=O)C2(CF)CC2)NC(=O)[C@@H]2C[C@@H](Oc3nc4nccn4c4ccc(Cl)cc34)CN2C(=O)[C@@H](NC(=O)OC(C)(C)C(F)(F)F)[C@H](C)C1 [Compound 6131] | 1.01 to 5 nM | 5.01 to 35 nM | – | – |
| CC[C@@H]1C[C@H](C)CC/C=C\[C@@H]2C[C@@]2(C(=O)NS(=O)(=O)C2(C)CC2)NC(=O)[C@@H]2C[C@@H](Oc3nc4nccn4c4ccc(Cl)cc34)CN2C(=O)[C@H]1NC(=O)OC(C)(C)C(F)(F)F [Compound 6133] | 0.51 to 1 nM | 5.01 to 35 nM | – | – |
| Cc1cn2c(n1)nc(O[C@@H]1C[C@H]3C(=O)N[C@]4(C(=O)NS(=O)(=O)C5(C)CC5)C[C@H]4/C=C\CC[C@@H](C)C[C@@H](C)[C@H](NC(=O)OC(C)(C)C(F)(F)F)C(=O)N3C1)c1cc(Cl)ccc12 [Compound 6135] | 0.51 to 1 nM | 1.01 to 5 nM | – | – |
| Cc1cn2c(n1)nc(O[C@@H]1C[C@H]3C(=O)N[C@]4(C(=O)NS(=O)(=O)C5(C)CC5)C[C@H]4/C=C\CC[C@@H](C)C[C@@H](C)[C@H](NC(=O)OC(C)(C)C(C)(F)F)C(=O)N3C1)c1cc(Cl)ccc12 [Compound 6137] | 0.51 to 1 nM | 1.01 to 5 nM | – | – |
| Cc1cn2c(n1)nc(O[C@@H]1C[C@H]3C(=O)N[C@]4(C(=O)NS(=O)(=O)C5(CF)CC5)C[C@H]4/C=C\CC[C@@H](C)C[C@@H](C)[C@H](NC(=O)OC(C)(C)C(F)(F)F)C(=O)N3C1)c1cc(Cl)ccc12 [Compound 6139] | 1.01 to 5 nM | 5.01 to 35 nM | – | – |
